Converted amounts (≈) assume the structure as drawn. Read-outs that look alike come from different tables or passages of the source.
Assays:
M. suipneumoniae TAM 6N = assay: MIC against mycoplasma in vitro; format: cell-based; settings: Mesomycoplasma hyopneumoniae, TAM6N, 144 h
M. bovis NCTC 10131 = assay: microbe, parasite or virus in culture; format: cell-based; settings: NCTC10131, 144 h
[1] = system: Strep. pyogenes R80/421-A; assay: MIC against human bacteria in vitro; format: cell-based; settings: Streptococcus pyogenes
Strep. faecalis I = assay: MIC against human bacteria in vitro; format: cell-based; settings: Enterococcus faecalis; Strep. faecalis I; 5% chocolated horse blood agar, 18 hours; read-out: MIC
M. gallisepticum S6 = assay: MIC against mycoplasma in vitro; format: cell-based; settings: Mycoplasmoides gallisepticum
K. aerogenes A = assay: MIC against human bacteria in vitro; format: cell-based; settings: Klebsiella aerogenes; K. aerogenes A; 5% chocolated horse blood agar, 18 hours; read-out: MIC
E. coli NCTC 10418 [2] = assay: MIC against veterinary bacteria in vitro; settings: Escherichia coli, NCTC10418, 18 h
Method: (§1) The activity of the compounds of the Examples against various veterinarily important bacteria, was assayed in vitro using two-fold serial dilutions in Diagnostic Sensitivity Test Agar inoculated with 10^4 organisms.

E. coli NCTC 10418 [3] = assay: MIC against human bacteria in vitro; format: cell-based; settings: Escherichia coli, NCTC10418; E. coli NCTC 10418; agar with 5% chocolated horse blood, 18 hours, 37° C.; read-out: MIC
[4] = system: M. bovigenitalium ATCC 14173; assay: MIC against mycoplasma in vitro; format: cell-based; settings: 144 h
Strep. spp. 64/848-C = assay: MIC against human bacteria in vitro; format: cell-based; settings: Strep. spp. 64/848-C; 5% chocolated horse blood agar, 18 hours; read-out: MIC
B. subtilis ATCC 6633 = assay: MIC against veterinary bacteria in vitro; settings: Bacillus subtilis, ATCC6633, 18 h
Method: as §1

Strep. uberis SPU1 = assay: MIC against veterinary bacteria in vitro; settings: Streptococcus uberis, SPU1, 18 h
Method: as §1

E. coli E1 = assay: MIC against veterinary bacteria in vitro; settings: Escherichia coli, E1, 18 h
Method: as §1

[5] = system: Staph. aureus 152 (pen. sens); assay: MIC against veterinary bacteria in vitro; settings: Staphylococcus aureus, 18 h
Method: as §1

[6] = system: Ps. aeruginosa NCTC 10662; assay: MIC against human bacteria in vitro; format: cell-based; settings: Pseudomonas aeruginosa, NCTC10662; Ps. aeruginosa NCTC 10662; 5% chocolated horse blood agar, 18 hours; read-out: MIC
M. suipneumoniae MS 16 = assay: MIC against mycoplasma in vitro; format: cell-based; settings: Mesomycoplasma hyopneumoniae, MS16, 144 h
P. mirabilis 889 = assay: MIC against human bacteria in vitro; format: cell-based; settings: Proteus mirabilis; P. mirabilis 889; 5% chocolated horse blood agar, 18 hours; read-out: MIC
S. typhimurium S18 = assay: MIC against veterinary bacteria in vitro; settings: Salmonella enterica, TYPHIMURIUM, 18 h
Method: as §1

M. suipneumoniae NB12 = assay: MIC against mycoplasma in vitro; format: cell-based; settings: Mesomycoplasma hyopneumoniae
Strep. dysgalactiae SPD1 = assay: MIC against veterinary bacteria in vitro; settings: Streptococcus dysgalactiae, SPD1, 18 h
Method: as §1

Bord. bronchiseptica B09 = assay: MIC against veterinary bacteria in vitro; settings: Bordetella bronchiseptica, B09, 18 h
Method: as §1

M. suipneumoniae Str. 11 = assay: MIC against mycoplasma in vitro; format: cell-based; settings: Mesomycoplasma hyopneumoniae
[7] = M. suipneumoniae MS 16, 6 days, 37° C., read-out: MIC
[8] = 144 h, M. suipneumoniae NB12, Friis broth, 0.9% agarose, 6 days, 37° C., read-out: MIC
[9] = 144 h, M. suipneumoniae Str. 11, 6 days, 37° C., read-out: MIC
[10] = Strep. pyogenes R80/421-A, 5% chocolated horse blood agar, 18 hours, read-out: MIC

Row | Compound | MIC (M. suipneumoniae TAM 6N) | MIC (M. bovis NCTC 10131) | MIC (Strep. faecalis I) | MIC (M. gallisepticum S6; S6, 144 h) | MIC (K. aerogenes A) | MIC (E. coli NCTC 10418 [2]) | MIC (E. coli NCTC 10418 [3]) | MIC [4] | MIC (Strep. spp. 64/848-C) | MIC (B. subtilis ATCC 6633) | MIC (Strep. uberis SPU1) | MIC (E. coli E1) | MIC [5] | MIC [6] | MIC (M. suipneumoniae MS 16; [7]) | MIC (P. mirabilis 889) | MIC (S. typhimurium S18) | MIC (Strep. dysgalactiae SPD1) | MIC (Bord. bronchiseptica B09) | MIC (M. suipneumoniae Str. 11; [9]) | further results
1 | C/C(=C\c1ncc(-c2ccsc2)o1)C[C@@H]1OC[C@H](C[C@@H]2O[C@H]2[C@@H](C)[C@H](C)O)[C@@H](O)[C@H]1O [Example 20, 5-(3-Thienyl)-2-(1-normon-2-yl) oxazole A] | 1 µg/mL (≈ 2.22 µM) | ≤ 0.01 µg/mL | > 128 µg/mL | 2.5 µg/mL (≈ 5.56 µM) | > 128 µg/mL | > 80 µg/mL | > 128 µg/mL | 0.05 µg/mL (≈ 0.111 µM) | 2 µg/mL (≈ 4.45 µM) | 10 µg/mL (≈ 22.2 µM) | 0.156 µg/mL (≈ 0.347 µM) | > 80 µg/mL | 0.63 µg/mL (≈ 1.4 µM) | > 128 µg/mL | 0.5 µg/mL (≈ 1.11 µM) | > 128 µg/mL | > 80 µg/mL | 0.625 µg/mL (≈ 1.39 µM) | 10 µg/mL (≈ 22.2 µM) | 0.5 µg/mL (≈ 1.11 µM) | MIC ([1]; R80/421A, 18 h): 0.25 µg/mL (≈ 0.556 µM); MIC (M. suipneumoniae NB12; [8]): 0.5 µg/mL (≈ 1.11 µM)
2 | C/C(=C\c1ncc(-c2ccc(C#N)cc2)o1)C[C@@H]1OC[C@H](C[C@@H]2O[C@H]2[C@@H](C)[C@H](C)O)[C@@H](O)[C@H]1O [Example 21, 5-p-Cyanophenyl-2-(1-normon-2-yl) oxazole A] |  | 0.025 µg/mL (≈ 0.0534 µM) | > 128 µg/mL | 0.25 µg/mL (≈ 0.534 µM) | > 128 µg/mL | > 80 µg/mL | > 128 µg/mL | 0.05 µg/mL (≈ 0.107 µM) | 4 µg/mL (≈ 8.54 µM) | 2.5 µg/mL (≈ 5.34 µM) | 0.156 µg/mL (≈ 0.333 µM) | > 80 µg/mL | 0.625 µg/mL (≈ 1.33 µM) | > 128 µg/mL |  | > 128 µg/mL | > 80 µg/mL | 0.625 µg/mL (≈ 1.33 µM) | 10 µg/mL (≈ 21.3 µM) |  | MIC (M. suipneumoniae TAM 6N; M. suipneumoniae TAM 6N, 6 days, 37° C., read-out: MIC): 0.5 µg/mL (≈ 1.07 µM); MIC [1, 10]: 1 µg/mL (≈ 2.13 µM); MIC (M. suipneumoniae MS 16): 0.25 µg/mL (≈ 0.534 µM); MIC (M. suipneumoniae NB12; NB12, 144 h): 0.25 µg/mL (≈ 0.534 µM); MIC (M. suipneumoniae Str. 11; STR.11, 144 h): 0.25 µg/mL (≈ 0.534 µM)
3 | CSc1cccc(-c2cnc(/C=C(\C)C[C@@H]3OC[C@H](C[C@@H]4O[C@H]4[C@@H](C)[C@H](C)O)[C@@H](O)[C@H]3O)o2)c1 [Example 22, 5-m-Methylthiophenyl-2-(1-normon-2-yl)oxazole A] | 1 µg/mL (≈ 2.04 µM) | 0.05 µg/mL (≈ 0.102 µM) | > 128 µg/mL |  | > 128 µg/mL | > 80 µg/mL | > 128 µg/mL | 0.1 µg/mL (≈ 0.204 µM) | 16 µg/mL (≈ 32.7 µM) | 0.625 µg/mL (≈ 1.28 µM) | 0.156 µg/mL (≈ 0.319 µM) | > 80 µg/mL | 1.25 µg/mL (≈ 2.55 µM) | > 128 µg/mL | 0.5 µg/mL (≈ 1.02 µM) | > 128 µg/mL | > 80 µg/mL | 1.25 µg/mL (≈ 2.55 µM) | 40 µg/mL (≈ 81.7 µM) | 0.5 µg/mL (≈ 1.02 µM) | MIC [1, 10]: 8 µg/mL (≈ 16.3 µM); MIC (M. gallisepticum S6; 144 h, M. gallisepticum S6, 6 days, 37° C., read-out: MIC): 5 µg/mL (≈ 10.2 µM); MIC (M. suipneumoniae NB12; NB12, 144 h): 1 µg/mL (≈ 2.04 µM)
4 | C/C(=C\c1ncc(-c2cccc(S(C)(=O)=O)c2)o1)C[C@@H]1OC[C@H](C[C@@H]2O[C@H]2[C@@H](C)[C@H](C)O)[C@@H](O)[C@H]1O [Example 23, 5-m-Methylsulphonylphenyl-2-(1-normon-2-yl) oxazole A] | 1 µg/mL (≈ 1.92 µM) | 0.025 µg/mL (≈ 0.0479 µM) | > 128 µg/mL | 1 µg/mL (≈ 1.92 µM) | > 64 µg/mL | > 80 µg/mL | > 64 µg/mL | 0.1 µg/mL (≈ 0.192 µM) | 2 µg/mL (≈ 3.83 µM) | 1.25 µg/mL (≈ 2.4 µM) | 0.625 µg/mL (≈ 1.2 µM) | > 80 µg/mL | 2.5 µg/mL (≈ 4.79 µM) | > 64 µg/mL | 0.5 µg/mL (≈ 0.959 µM) | > 64 µg/mL | > 80 µg/mL | 1.25 µg/mL (≈ 2.4 µM) | 40 µg/mL (≈ 76.7 µM) | 0.5 µg/mL (≈ 0.959 µM) | MIC [1, 10]: 0.5 µg/mL (≈ 0.959 µM); MIC (M. suipneumoniae NB12; [8]): 0.5 µg/mL (≈ 0.959 µM)

Source: patent US5041567A, “Antibacterial monic acid derivatives” (Beecham Group plc, priority 1982, dated 1991)
